From ChEMBL document CHEMBL1125491, “Potential prodrug derivatives of 2',3'-didehydro-2',3'-dideoxynucleosides. Preparations and antiviral activities” (J Med Chem, 1992)

Assays:
[1] = test system: Human immunodeficiency virus 2; test: Concentration required to protect 50% of HIV-2 infected MT-4 cells against viral cytopathicity.; format: functional, organism-based; details: Human immunodeficiency virus 2, MT4
[2] = test system: Human immunodeficiency virus 1; test: Concentration required to protect 50% of HIV-1 infected MT-4 cells against viral cytopathicity.; format: functional, organism-based; details: Human immunodeficiency virus 1, MT4
MT4 = test: Concentration required to reduce the number of viable uninfected MT-4 cells by 50%.; format: functional; details: Homo sapiens

Row | Compound | EC50 [1] | EC50 [2] | CC50 (MT4)
1 | Nc1ncnc2c1ncn2C1C=CC(COP(=O)(O)Oc2ccccc2)O1 (stereo unspecified) | 37 µM | 24 µM | 157 µM
2 | Nc1ccn([C@H]2CC[C@@H](CO)O2)c(=O)n1 [ZALCITABINE] | 0.69 µM | 0.91 µM | 30 µM
3 | Nc1ncnc2c1ncn2C1C=CC(COP(=O)(O)c2ccccc2)O1 (stereo unspecified) | > 500 µM | > 500 µM | > 500 µM
4 | CC1=CN([C@H]2C[C@H](OP(=O)(O)OC[C@@H]3C=C[C@H](n4ccc(N)nc4=O)O3)[C@@H](CO)O2)C(=O)NC1N (stereo partly specified) | 1.6 µM | 1.8 µM | 28 µM
5 | CC1=CN([C@H]2C[C@H](OP(=O)(O)OC[C@@H]3C=C[C@H](n4cnc5c(N)ncnc54)O3)[C@@H](CO)O2)C(=O)NC1N (stereo partly specified) | 29 µM | 26 µM | 198 µM
6 | COP(=O)(O)OCC1C=CC(n2cnc3c(N)ncnc32)O1 (stereo unspecified) | 58 µM | 38 µM | 168 µM
7 | Nc1ccn(C2C=CC(COP(=O)(O)c3ccccc3)O2)c(=O)n1 (stereo unspecified) | 136 µM | 111 µM | > 500 µM
8 | Nc1ncnc2c1ncn2C1C=CC(COP(O)(=S)c2ccccc2)O1 (stereo unspecified) | > 500 µM | > 500 µM | > 500 µM
9 | Nc1ccn(C2C=CC(COP(=O)(O)Oc3ccccc3)O2)c(=O)n1 (stereo unspecified) | 1.5 µM | 1.9 µM | 35 µM
10 | Nc1ccn(C2C=CC(COP(O)(=S)c3ccccc3)O2)c(=O)n1 (stereo unspecified) | > 500 µM | > 500 µM | > 500 µM
11 | COP(=O)(O)OCC1C=CC(n2ccc(N)nc2=O)O1 (stereo unspecified) | 1.7 µM | 3.1 µM | 27 µM
12 | Nc1ncnc2c1ncn2[C@H]1CC[C@@H](CO)O1 | 72 µM | 41 µM | > 100 µM
